Assay results published in patent publication US20050197350A1, “Novel quinoline, tetrahydroquinazoline, and pyrimidine derivatives and methods of treatment related to the use thereof” (TAISHO PHARMACEUTICAL CO., LTD., priority 2003, published 2005).

Test system: MCH receptors
Experiment: MCH receptor activity class (method not given)
[1] = class 1-3 by percent of control at 10^-7 M or IC50
[2] = MCH receptor, class by percent of control at 10^-7 M or IC50
[3] = class by percent of control at 10^-7 M or IC50
[4] = class by percent of control at 10^−7 M or IC50
[5] = MCH receptor activity class 1-3 (percent of control at 10^-7 M or IC50)
[6] = activity class per percent of control at 10^-7 M or IC50

CCOc1ccc2ccccc2c1C(=O)N[C@H]1CC[C@@H](Nc2nc3c(c(N(C)C)n2)CCCC3)CC1 [compound 565]
class [1]: 3 (Class 3 The value of percent of control at 10^−7 M was more than 60% or the value of IC50 was more than 200 nM.)

CN(C)c1nc(N[C@H]2CC[C@@H](NC(=S)Nc3ccc4c(c3)CCC4)CC2)nc2c1CCCC2 [compound 2054]
class [2]: 3 (Class 3 The value of percent of control at 10^−7 M was more than 60% or the value of IC50 was more than 200 nM.)

COc1cc(Br)cc(CN[C@H]2CC[C@@H](Nc3nc4c(c(N(C)C)n3)CCCC4)CC2)c1O [compound 1333]
class [3]: 3 (Class 3 The value of percent of control at 10^−7 M was more than 60% or the value of IC50 was more than 200 nM.)

Cc1ccc(C(=O)N[C@H]2CC[C@@H](Nc3nccc(N(C)C)n3)CC2)c(F)c1F [compound 278]
class [3]: 3 (Class 3 The value of percent of control at 10^−7 M was more than 60% or the value of IC50 was more than 200 nM.)

Cc1cc(N(C)C)nc(NC[C@H]2CC[C@@H](NC(=O)c3ccc(C#N)cc3)CC2)n1 [compound 2743]
class [4]: 3 (Class 3 The value of percent of control at 10^−7 M was more than 60% or the value of IC50 was more than 200 nM.)

COc1cc(CNC[C@H]2CC[C@@H](Nc3nc4c(c(N(C)C)n3)CCCC4)CC2)cc(OC)c1O [compound 1375]
class [3]: 3 (Class 3 The value of percent of control at 10^−7 M was more than 60% or the value of IC50 was more than 200 nM.)

CSc1ccc(NC(=O)NC[C@H]2CC[C@@H](Nc3nccc(N(C)C)n3)CC2)cc1 [compound 2411]
class [5]: 3 (Class 3 The value of percent of control at 10^−7 M was more than 60% or the value of IC50 was more than 200 nM.)

CN(C)c1cc(N[C@H]2CC[C@@H](NC(=O)Nc3c(F)cc(Br)cc3F)CC2)nc2ccccc12 [compound 2116]
class [3]: 3 (Class 3 The value of percent of control at 10^−7 M was more than 60% or the value of IC50 was more than 200 nM.)

Cc1cc(N(C)C)nc(N[C@H]2CC[C@@H](C(=O)NCc3ccc(F)c(F)c3)CC2)n1 [compound 2801, cis-N-(3,4-difluorobenzyl)-4-{[4-(dimethylamino)-6-methylpyrimidin-2-yl]amino}cyclohexanecarboxamide]
class [4]: 1 (Class 1: The value of percent of control at 10^−7 M was less than 40% or the value of IC50 was less than 50 nM.)

COc1cc(CNC[C@H]2CC[C@@H](Nc3nc4c(c(N(C)C)n3)CCCC4)CC2)cc(F)c1O [compound 1441]
class [3]: 2 (Class 2: The value of percent of control at 10^−7 M was from 40% to 60% or the value of IC′50 was from 50 nM to 200 nM.)

Cc1cc(C(=O)N[C@H]2CC[C@@H](Nc3nccc(N(C)C)n3)CC2)c(C(F)(F)F)o1 [compound 288]
class [3]: 3 (Class 3 The value of percent of control at 10^−7 M was more than 60% or the value of IC50 was more than 200 nM.)

CN(C)c1cc(N[C@H]2CC[C@@H](NC(=O)c3ccc4ccccc4c3)CC2)nc2ccccc12 [compound 110]
class [2]: 3 (Class 3 The value of percent of control at 10^−7 M was more than 60% or the value of IC50 was more than 200 nM.)

CN(C)c1ccnc(N[C@H]2CC[C@@H](NC(=O)c3csc(-c4ccc5c(c4)CCO5)n3)CC2)n1 [compound 359, 2-(2,3-dihydro-1-benzofuran-5-yl)-N-(cis-4-{[4-(dimethylamino)pyrimidin-2-yl]amino}cyclohexyl)-1,3-thiazole-4-carboxamide]
class [3]: 1 (Class 1: The value of percent of control at 10^−7 M was less than 40% or the value of IC50 was less than 50 nM.)

CCCc1c(CNC[C@H]2CC[C@@H](Nc3cc(N(C)C)c4ccccc4n3)CC2)cnn1-c1ccccc1 [compound 1478]
class [3]: 1 (Class 1: The value of percent of control at 10^−7 M was less than 40% or the value of IC50 was less than 50 nM.)

CCc1cccc(NC(=S)N[C@H]2CC[C@@H](Nc3nc4c(c(N(C)C)n3)CCCC4)CC2)c1 [compound 2042]
class [2]: 3 (Class 3 The value of percent of control at 10^−7 M was more than 60% or the value of IC50 was more than 200 nM.)

COc1cc(C(=O)N[C@H]2CC[C@@H](Nc3nc4c(c(N(C)C)n3)CCCC4)CC2)cc(OC)c1OC [compound 551]
class [1]: 3 (Class 3 The value of percent of control at 10^−7 M was more than 60% or the value of IC50 was more than 200 nM.)

COc1ccccc1NC(=S)N[C@H]1CC[C@@H](Nc2nc3c(c(N(C)C)n2)CCCC3)CC1 [compound 1743]
class [3]: 3 (Class 3 The value of percent of control at 10^−7 M was more than 60% or the value of IC50 was more than 200 nM.)

Cc1cccc(C)c1NC(=O)NC[C@H]1CC[C@@H](Nc2cc(N(C)C)c3ccccc3n2)CC1 [compound 2360]
class [5]: 3 (Class 3 The value of percent of control at 10^−7 M was more than 60% or the value of IC50 was more than 200 nM.)

CN(C)c1nc(N[C@H]2CC[C@@H](NC(=O)Cc3ccc(Cl)c(Cl)c3)CC2)nc2c1CCCC2 [compound 975]
class [3]: 1 (Class 1: The value of percent of control at 10^−7 M was less than 40% or the value of IC50 was less than 50 nM.)

CN(C)c1nc(N[C@H]2CC[C@@H](NC(=O)C(c3ccccc3)c3ccccc3)CC2)nc2c1CCCC2 [compound 468]
class [1]: 1 (Class 1: The value of percent of control at 10^−7 M was less than 40% or the value of IC50 was less than 50 nM.)

CN(C)c1ccnc(N[C@H]2CC[C@@H](CNC(=O)c3ccc(Br)cc3)CC2)n1 [compound 367]
class [3]: 3 (Class 3 The value of percent of control at 10^−7 M was more than 60% or the value of IC50 was more than 200 nM.)

Cc1nc(N[C@H]2CC[C@@H](NC(=O)Nc3ccc(OCc4ccccc4)cc3)CC2)nc(N(C)C)c1C [compound 2869]
class [4]: 3 (Class 3 The value of percent of control at 10^−7 M was more than 60% or the value of IC50 was more than 200 nM.)

CN(C)c1nc(N[C@H]2CC[C@@H](NC(=O)c3cc(Cl)cc(Cl)c3NC(=O)C#Cc3ccccc3)CC2)nc2c1CCCC2 [compound 994]
class [6]: 1 (Class 1: The value of percent of control at 10^−7 M was less than 40% or the value of IC50 was less than 50 nM.)

Cc1ccc(C(=O)N[C@H]2CC[C@@H](Nc3nc(C)cc(N(C)C)n3)CC2)cc1 [compound 2985, N-(cis-4-{[4-(dimethylamino)-6-methylpyrimidin-2-yl]amino}cyclohexyl)-4-methylbenzamide]
class [4]: 1 (Class 1: The value of percent of control at 10^−7 M was less than 40% or the value of IC50 was less than 50 nM.)

COc1cc(CNC[C@H]2CC[C@@H](Nc3cc(N(C)C)c4ccccc4n3)CC2)cc(OC)c1O [compound 1133]
class [6]: 3 (Class 3 The value of percent of control at 10^−7 M was more than 60% or the value of IC50 was more than 200 nM.)

COc1cc(Br)c(CNC[C@H]2CC[C@@H](Nc3cc(N(C)C)c4ccccc4n3)CC2)cc1OC [compound 1191]
class [3]: 3 (Class 3 The value of percent of control at 10^−7 M was more than 60% or the value of IC50 was more than 200 nM.)

CN(C)c1ccnc(N[C@H]2CC[C@@H](CNCc3ccc4c(c3)OCO4)CC2)n1 [compound 1303]
class [3]: 3 (Class 3 The value of percent of control at 10^−7 M was more than 60% or the value of IC50 was more than 200 nM.)

COc1ccc(Cl)cc1CNC[C@H]1CC[C@@H](Nc2nc3c(c(N(C)C)n2)CCCC3)CC1 [compound 1506]
class [3]: 3 (Class 3 The value of percent of control at 10^−7 M was more than 60% or the value of IC50 was more than 200 nM.)

Cc1sc(-c2ccccc2)nc1CC(=O)N[C@H]1CC[C@@H](Nc2nccc(N(C)C)n2)CC1 [compound 851, N-(cis-4-{[4-(dimethylamino)pyrimidin-2-yl]amino}cyclohexyl)-2-(5-methyl-2-phenyl-1,3-thiazol-4-yl)acetamide]
class [3]: 2 (Class 2: The value of percent of control at 10^−7 M was from 40% to 60% or the value of IC′50 was from 50 nM to 200 nM.)

Cc1cc(NC(=O)NC[C@H]2CC[C@@H](Nc3cc(N(C)C)c4ccccc4n3)CC2)c(C(F)(F)F)o1 [compound 2392]
class [5]: 3 (Class 3 The value of percent of control at 10^−7 M was more than 60% or the value of IC50 was more than 200 nM.)

CN(C)c1cc(N[C@H]2CC[C@@H](NC(=O)c3ccccc3Oc3ccccc3)CC2)nc2ccccc12 [compound 754, N-(cis-4-{[4-(dimethylamino)quinolin-2-yl]amino}cyclohexyl)-2-phenoxybenzamide]
class [3]: 2 (Class 2: The value of percent of control at 10^−7 M was from 40% to 60% or the value of IC′50 was from 50 nM to 200 nM.)

CN(C)c1cc(N[C@H]2CC[C@@H](NC(=O)c3cc(C(C)(C)C)nn3C)CC2)nc2ccccc12 [compound 86]
class [2]: 3 (Class 3 The value of percent of control at 10^−7 M was more than 60% or the value of IC50 was more than 200 nM.)

CN(C)c1ccnc(N[C@H]2CC[C@@H](CNC(=O)NC(c3ccccc3)c3ccccc3)CC2)n1 [compound 2435, N-[(cis-4-{[4-(dimethylamino)pyrimidin-2-yl]amino}cyclohexyl)methyl]-N′-(diphenylmethyl)urea]
class [5]: 1 (Class 1: The value of percent of control at 10^−7 M was less than 40% or the value of IC50 was less than 50 nM.)

COc1ccc2[nH]cc(CN[C@H]3CC[C@@H](Nc4nccc(N(C)C)n4)CC3)c2c1 [compound 1210]
class [3]: 3 (Class 3 The value of percent of control at 10^−7 M was more than 60% or the value of IC50 was more than 200 nM.)

CN(C)c1nc(N[C@H]2CC[C@@H](CNC(=O)c3ccc(F)cc3)CC2)nc2c1CCCC2 [compound 599]
class [1]: 3 (Class 3 The value of percent of control at 10^−7 M was more than 60% or the value of IC50 was more than 200 nM.)

CN(C)c1nc(N[C@H]2CC[C@@H](NC(=O)c3ccc4ccccc4c3)CC2)nc2c1CCCC2 [compound 546]
class [1]: 3 (Class 3 The value of percent of control at 10^−7 M was more than 60% or the value of IC50 was more than 200 nM.)

CN(C)c1nc(N[C@H]2CC[C@@H](NC(=O)c3cc(C(F)(F)F)ccc3F)CC2)nc2c1CCCC2 [compound 501]
class [1]: 3 (Class 3 The value of percent of control at 10^−7 M was more than 60% or the value of IC50 was more than 200 nM.)

CN(C)c1ccnc(N[C@H]2CC[C@@H](CNC(=O)c3ccc(Br)s3)CC2)n1 [compound 925]
class [3]: 3 (Class 3 The value of percent of control at 10^−7 M was more than 60% or the value of IC50 was more than 200 nM.)
